≈ marks a conversion by molar mass, not a printed value. Where two headings read alike, the source gives them in different places. *1 amine or outer side, *2 acyl side, *3 side chain or, on linkers, in order; H or OH if unused. Where a SMILES comes first, the peptide text is derived from it. Bridges are numbered along the chain shown (N, C = ends). Roman numbers before positions name the chains, in order. [ ]: non-standard residue; d: D form. Actinocin(9to1) = Cc1c2oc3c(C)ccc(C(=O)[*:1])c3nc-2c(C(=O)[*:2])c(N)c1=O; NMeV = CN[C@H](C(=O)O)C(C)C; Sar = CNCC(=O)O
Tests used:
[1] = XTT cell proliferation (cytotoxicity) assay on McCoy cells; format: cell-based; conditions: mouse; McCoy cells, XTT, 48 h; read-out: IC50 (cytotoxicity)
Description: (§1) Extract and compounds were dissolved in dimethyl sulfoxide (DMSO) and stored at −20°C. All tested compounds were diluted to the final concentration with RPMI 1640 and control cultures were diluted with 0.1% DMSO.
(§2) McCoy cells were maintained in monolayer culture at 37°C and 5% CO2 with 10% […] Medium, 10 μg/mL of penicillin, 10 μg/mL, streptomycin, 40 μg/mL gentamycin, and 0.25 μg/mL fungizone.
(§3) A microtiter plate with McCoy cells was used for testing all the ethanol extracts for cytotoxicity following the method of [26]. Cytotoxicity was measured by the XTT (sodium 3′-[1-(phenyl amino-carbonyl)-3,4-tetrazolium]-bis-[4-methoxy-6-nitro] benzene sulfonic acid hydrate) method using a cell proliferation kit II (Roche Diagnostics GmbH). Hundred microlitres of McCoy cells (1 × 10^5 mL) was seeded onto a microtiter plate and incubated for 24 h to allow the cells to attach to the bottom of the plate. Dilution series were made of the extract and compound and the various concentrations (400 to 3.1 μg/mL) were added to the microtitre plate and incubated for 48 h. The XTT reagents were added to a final concentration of 0.3 mg/mL and the cells were incubated for 1-2 hours. The positive drug control (Zearalenone) at concentrations range of (10 μg/mL to 0.6 μg/mL) was included in the assay. After incubation the absorbance of the colour was spectrophotometrically quantified using an ELISA plate reader, which measured the optical density at 490 nm with a reference wavelength of 690 nm. The assay was carried out in triplicate.

[2] = system: Actinomyces naeslundii (ATCC 19039); assay: Microdilution MIC/MMC (INT) against Actinomyces naeslundii; format: cell-based; conditions: A.n, Gram +ve, table title says mg/mL; for MBC: MMC in title
Description: (§4) The microorganisms used in this study include Actinomyces naeslundii (ATCC 19039), Actinomyces israelii (ATCC 10049), Aggregatibacter actinomycetemcomitans (ATCC 33384), Candida albicans (Med I), Porphyromonas gingivalis (ATCC 33277), Prevotella intermedia (ATCC 25611), and Streptococcus mutans (ATCC 25175). Bacteria were grown in the Casein-peptone Soy Agar medium (CASO) (Merck SA (Pty) Ltd.) under anaerobic conditions in a jar with anaerocult A (Merck SA (Pty) Ltd.), at 37°C for 48 hours. Sabouraud Dextrose Agar medium (SDA) (Merck SA (Pty) Ltd.) was used for the culturing of Candida albicans and incubated at 37°C for 24 hours under aerobic conditions. Subculturing was done once weekly.
(§5) The microdilution technique using 96-well microplates was used to obtain the MIC and MMC values of the crude extract against microorganisms under study. The extract was serially diluted in the 96-well plate with 48 hours old microorganisms (5 × 10^6 CFU/mL) grown at 37°C and the final concentration of extract and positive control (CHX) ranged from 25.0 mg/mL to 0.8 mg/mL. Microbial growth was indicated by adding 40 μL of (0.2 mg/mL) p-iodonitrotetrazolium violet (INT) (Sigma-Aldrich, South Africa) to microplate wells and incubated at 37°C for 48 hours. MIC was defined as the lowest concentration that inhibited the colour change of INT. […] These suspensions were reincubated at 37°C for 48 hours. The MMC was determined as the lowest concentration of extract which inhibited 100% growth of microorganisms.

[3] = system: Actinomyces israelii (ATCC 10049); assay: Microdilution MIC/MMC (INT) against Actinomyces israelii; format: cell-based; conditions: A.i, Gram +ve, table title says mg/mL; for MBC: MMC in title
Description: as §4, §5

[4] = system: Aggregatibacter actinomycetemcomitans (ATCC 33384); assay: Microdilution MIC/MMC (INT) against Aggregatibacter actinomycetemcomitans; format: cell-based; conditions: A.a, Gram –ve, table title says mg/mL; for MBC: MMC in title
Description: as §4, §5

[5] = system: Prevotella intermedia (ATCC 25611); assay: Microdilution MIC/MMC (INT) against Prevotella intermedia; format: cell-based; conditions: P.i, Gram –ve, table title says mg/mL; for MBC: MMC in title
Description: as §4, §5

[6] = system: Porphyromonas gingivalis (ATCC 33277); assay: Microdilution MIC/MMC (INT) against Porphyromonas gingivalis; format: cell-based; conditions: P.g, Gram –ve, table title says mg/mL; for MBC: MMC in title
Description: as §4, §5

Candida albicans (Med I) = assay: Microdilution MIC/MMC (INT) against Candida albicans; format: cell-based; conditions: C.a, Yeast, table title says mg/mL; for MBC: MMC in title
Description: as §4, §5

oral microorganisms = assay: Microdilution MIC/MMC, summary over tested microbial species; format: cell-based; conditions: against A. israelii and A. naeslundii
Description: as §4, §5

[7] = DPPH free radical scavenging assay; format: biochemical; conditions: 37°C, 30 min, 517 nm
Description: The free radical scavenging activity was measured using 1, 1 diphenyl-2-picryl-hydraxyl (DPPH) assay with slight modifications. The ethanol extract of A. afra and Vitamin C (positive control) 1000 μg/mL (20 μL) was added in the first three wells of a 96-well plate containing 200 μL of distilled water to make up final concentration of 100 μg/mL and the remaining wells were filled with 110 μL of distilled water. The first raws containing the extract/compounds were serially diluted to wells which contain 110 μL of distilled water, and later, 90 μL of methanolic solution of DPPH ([…]) was added to all the wells. The final concentrations of the extract/compounds ranged from 100 to 0.8 μg/mL. The plates were incubated at 37°C for 30 min and the absorbance was measured at 517 nm using the ELISA plate reader. The percent radical scavenging activity by A. afra was determined by comparison with ethanol (blank). The inhibition ratio was calculated as follows: % DPPH radical-scavenging = (AC-AS)/AC × 100, where AC is absorbance of the control solution (containing only DPPH solution), and AS is the absorbance of the sample in DPPH solution. The percentage of DPPH radical-scavenging was plotted against the plant extract/compounds concentrations (μg/mL) to determine the concentration of extract/compound required to scavenge DPPH by 50% (EC50).

McCoy fibroblast cells = assay: XTT cell proliferation (cytotoxicity) assay on McCoy cells; format: cell-based; conditions: McCoy cells, XTT, 48 h
Description: as §1, §2, §3

[8] = system: murine melanoma B16 cell line; parameters: method as in PMID 15363977; conditions: B16 cells; cited from earlier work
[9] = Actinomyces naeslundii, ATCC19039
[10] = Actinomyces israelii, ATCC10049
[11] = Aggregatibacter actinomycetemcomitans, ATCC33384
[12] = Prevotella intermedia, ATCC25611
[13] = Porphyromonas gingivalis, ATCC33277

Cc1c2oc3c(C)ccc(C(=O)N[C@@H]4C(=O)N[C@H](C(C)C)C(=O)N5CCC[C@H]5C(=O)N(C)CC(=O)N(C)[C@@H](C(C)C)C(=O)O[C@@H]4C)c3nc-2c(C(=O)N[C@@H]2C(=O)N[C@H](C(C)C)C(=O)N3CCC[C@H]3C(=O)N(C)CC(=O)N(C)[C@@H](C(C)C)C(=O)O[C@@H]2C)c(N)c1=O [Actinomycin-D, reference compound] (I: T[dV]P[Sar][NMeV] / II: T[dV]P[Sar][NMeV]; ester I:1-I:C, II:1-II:C; linker I:N-II:N via Actinocin(9to1))
IC50 at 48 h [1]: 0.00336 µg/mL (≈ 0.00268 µM)

scopoletin [compound 3]
MBC [2]: >1.0 µg/mL
MIC [2]: 1000 µg/mL
MBC [3]: 500 µg/mL
MIC [3]: 250 µg/mL
MBC [4]: > 1000 µg/mL
MIC [4]: > 1000 µg/mL
MBC [5]: 1.0 µg/mL
MIC [5]: 500 µg/mL
MBC [6]: > 1000 µg/mL
MIC [6]: >1.0 µg/mL
MBC (Candida albicans (Med I)): > 1000 µg/mL
MIC (Candida albicans (Med I)): > 1000 µg/mL
lowest MIC and MMC value (oral microorganisms): 250 µg/mL
DPPH scavenging IC50 [7]: 1.24 µg/mL
IC50 (cytotoxicity) (McCoy fibroblast cells): 132.5 µg/mL

C=C1C(=O)OC2C1C(OC(C)=O)CC(=C)C1(O)C=CC(C)(O)C21 (stereo not drawn) [compound 2, 12α,4α-dihydroxybishopsolicepolide]
MBC [2, 9]: 1000 µg/mL (≈ 3120 µM)
MIC [2, 9]: 500 µg/mL (≈ 1560 µM)
MBC [3, 10]: 500 µg/mL (≈ 1560 µM)
MIC [3, 10]: 500 µg/mL (≈ 1560 µM)
MBC [4, 11]: > 1000 µg/mL
MIC [4, 11]: > 1000 µg/mL
MBC ([5]; Prevotella intermedia, ATCC25611, read-out: MBC): 1 µg/mL (≈ 3.12 µM)
MIC [5, 12]: 1000 µg/mL (≈ 3120 µM)
MBC [6, 13]: > 1000 µg/mL
MIC ([6]; Porphyromonas gingivalis, ATCC33277, read-out: MIC): > 1 µg/mL
MBC (Candida albicans (Med I)): > 1000 µg/mL
MIC (Candida albicans (Med I)): > 1000 µg/mL

C=C(C)[C@@H]1CC[C@]2(C(=O)O)CC[C@]3(C)[C@H](CC[C@@H]4[C@@]5(C)CC[C@H](O)C(C)(C)[C@@H]5CC[C@]43C)[C@@H]12 [compound 6, betulinic acid]
MBC [2, 9]: 500 µg/mL (≈ 1090 µM)
MIC ([2]; Actinomyces naeslundii, ATCC19039, read-out: MIC): 0.25 µg/mL (≈ 0.547 µM)
MBC [3, 10]: 1000 µg/mL (≈ 2190 µM)
MIC ([3]; Actinomyces israelii, ATCC10049, read-out: MIC): 1 µg/mL (≈ 2.19 µM)
MBC [4, 11]: > 1000 µg/mL
MIC [4, 11]: > 1000 µg/mL
MBC [5, 12]: > 1000 µg/mL
MIC [5, 12]: 1000 µg/mL (≈ 2190 µM)
MBC [6, 13]: > 1000 µg/mL
MIC [6, 13]: 1000 µg/mL (≈ 2190 µM)
MBC (Candida albicans (Med I)): > 1000 µg/mL
MIC (Candida albicans (Med I)): > 1000 µg/mL
MIC (oral microorganisms; read-out: lowest MIC and MMC value): 250 µg/mL (≈ 547 µM)
DPPH scavenging IC50 [7]: 2.42 µg/mL
IC50 at 48 h [1]: 31 µg/mL (≈ 67.8 µM)
IC50 apoptotic effects [8]: 22.5 µg/mL (≈ 49.3 µM)

Reference: article PMC3369547, “Antimicrobial Constituents of Artemisia afra Jacq. ex Willd. against Periodontal Pathogens” (Evidence-based Complementary and Alternative Medicine : eCAM, 2012)
